Entries after “also recorded” stand apart in the source; their conditions may differ.
Tests used:
HIV = conditions: acutely infected H9 cells (baicalin also CEM-ss cells and PBMCs); cited from earlier work
HIV-1 [1] = assay: HIV-1 activation in TNF-α-treated OM-10.1 cultures, culture supernatant reverse transcriptase activity; assay type: cell-based, HIV-1 in OM-10.1 cells; conditions: for HIV-1 inhibitory activity in the OM-10.1 induction system: OM-10.1 cells, TNF-α induction
Protocol: (§1) FIG. 2 is a graph showing the inhibition of HIV-1 expression and toxicity in OM-10.1 cells by DRB, and similarity to inhibition imposed by chrysin and PD 144795. Reverse transcriptase activity (--.ae butted.--) was measured (as taught in Butera et al, Mol. Med. vol. 1, pp. 758-767 (1995)) in culture supernatants 48 hr after HIV activation, and cell viability (--.tangle-solidup.--) was assessed at 24 hr by flow cytometric analysis of propidium iodide exclusion. Inset: A graph showing the inhibition of HIV-1 expression in OM-10.1 cells by chrysin- (--Δ--) and PD 144795 (--.star.--) treatment of HIV-1.
(§2) OM-10.1 and HL-60 cells as described in Example 1 were propagated in RPMI-1640 supplemented with 10% heat-inactivated fetal calf serum, 2 mM glutamine, and 1% Pen-Strep. Induction of HIV-1 using TNF-α (Butera, S. T., et al, J. Virol. Vol. 65, pp. 4645-4653 (1991)), and antiviral assays (Butera, S. T., et al MoL Med. Vol. 1, pp. 758-767 (1995), Critchfield, J. W., et al., AIDS Res. Hum. Retr. Vol. 12, pp. 39-46 (1996)), were performed as described. For binding studies, cultures were grown to a density of 106 /ml, washed twice with cold PBS, and the cell pellet either flash-frozen in dry ice/ethanol for storage at -70° C., or immediately lysed in 1 ml cold lysis buffer/10^7 cells. Lysis buffer consisted of 0.02 M HEPES (pH 7.4), 0.5% Triton X-100, 0.3 M NaCl, 20 mM NaF, 1 mM each of Na4 P2 O7, Na3 VO4, DTT, EGTA and EDTA, 1 μg/ml each of leupeptin, aprotinin, and pepstatin, 0.5 mM PMSF, and 50 nM okadaic acid. Lysates were incubated on ice for 15 min, centrifuged at 10,000×g for 15 minutes at 4° C., then the supernatants were either used immediately or stored -70° C. For binding reactions with the chrysin affinity resin, lysates (2 ml) were diluted 1:2 with ice-cold 0.02 M HEPES (pH 7.4), then competitor compounds (or 0.1% final DMSO as the control), as indicated, were added to a final concentration of 10 μM and the lysates incubated on ice for 30 min. Chrysin-Sepharose (0.2 ml) was then added and the reactions gently mixed for 1 hr at 4° C. After 3 washes with cold 0.02 M HEPES (pH 7.4), 0.15 M NaCl, 0.25% Triton X-100, bound proteins were eluted with 2 ml 0.02 M ethanolamine (pH 9.5), 0.1% SDS, 0.5 mM chrysin, 1.0% DMSO at 23° C. Samples were concentrated via centrifugation at 23° C. through a 10 kD cut-off membrane (Centricon), then analyzed by SDS-PAGE (8%), and silver stained.
HIV-1 activation experiments were conducted in the presence or absence of DRB. […] Furthermore, the effective dose range of DRB (1-10 μM) was nearly identical to that of the other compounds (FIG. 2, inset), and toxicity over the effective dose range for the other compounds was also negligible.

[2] = test system: chrysin-binding proteins p44, p40, p29, p28 (subunits of CKII); assay: Chrysin affinity resin binding reaction with competitor compounds in OM-10.1 cell lysates (SDS-PAGE silver stain, anti-CKII immunoblot); design: species or system human; conditions: for effect of competitor on binding of proteins (p44, p40, p29, p28) to the chrysin-resin: competitor 10 μM added to lysate of TNF-α-induced OM-10.1 cells; for effect of competitor on binding of proteins (p44, p40, p29, p28) to the chrysin-resin / effect of competitor on binding of p28 to chrysin resin: silver staining; for effect of competitor on immunodetection of α, α' and β subunits of CKII bound to the chrysin resin / effect of competitor on binding of p28 to chrysin resin: competitor 10 μM; for effect of competitor on immunodetection of α, α' and β subunits of CKII bound to the chrysin resin: anti-CKII immunoblot
Protocol: The affinity resin was made by attachment of 4'-OH-chrysin chrysin (apigenin) to epoxy-activated Sepharose 6B, resulting in chrysin in an ether-linkage. The resin (2 g, dry) was washed with water then 0.1 N NaOH, added to 60 ml 0.01 M apigenin in 0.1 N NaOH (or 0.1 N NaOH only for a non-derivatized control resin), and incubated with gentle mixing for 24 hr at 37° C. The resin then underwent a series of washes (Ghenbot, et al., Prot. Expr. Purif. Vol. 3, pp. 470-478 (1992)) and the residual reactive groups capped with 0.1 M ethanolamine for 16 hr at 37° C. After washing with water, the resin was stored at 4° C. in 0.2% NaN3.
as §2
For Western analysis, proteins were transferred to PVDF and probed with a combination of two antibody reagents, one recognizing an epitope common to both the α and α' subunit of CKII (Upstate Biotechnology) and the other reacting with the β subunit of CKII (a gift from D. Litchfield, University of Western Ontario). Final detection was with enhanced chemiluminescence (Amersham).
To identify the targets of HIV-1 inhibitory flavonoids, Sepharose was derivatized with the flavonoid chrysin and interacted with lysates from OM-10.1 cells as described in Example I. Cultures induced to maximally express HIV-1 (24 hr treatment with TNF-α) were utilized to ensure the presence of both cellular and viral proteins.
To further confirm that the chrysin-binding proteins were indeed the subunits of CKII, resin-binding reactions were performed using a selective inhibitor of CKII activity, 5,6 dichloro-1-β-D-ribofuranosylbenzimidazole (DRB), and the results analyzed by silver staining and anti-CKII immunoblotting. […] Since the apparent mass of the β chain of CKII is increased by phosphorylation (Luscher, B. L., et al. Eur. J. Biochem. Vol. 220, pp. 521-526 (1994)), it was possible that p28 represented an unphosphorylated form of p29. […] Furthermore, the major p28 band observed by silver stain was absent by immunoblot analysis. This absence was not due to an inability of the CKIIβ antibody to recognize dephosphorylated CKIIβ, which had lower apparent mass following alkaline phosphatase treatment. […]

[3] = molecular target: human recombinant CKII (ααββ form) (Homo sapiens, UniProt P68400); assay: Human recombinant CKII enzyme kinetics; assay type: biochemical; conditions: for inhibition of CKII enzymatic activity: 37° C.
Sequence of human recombinant CKII (ααββ form) (P68400 whole entry): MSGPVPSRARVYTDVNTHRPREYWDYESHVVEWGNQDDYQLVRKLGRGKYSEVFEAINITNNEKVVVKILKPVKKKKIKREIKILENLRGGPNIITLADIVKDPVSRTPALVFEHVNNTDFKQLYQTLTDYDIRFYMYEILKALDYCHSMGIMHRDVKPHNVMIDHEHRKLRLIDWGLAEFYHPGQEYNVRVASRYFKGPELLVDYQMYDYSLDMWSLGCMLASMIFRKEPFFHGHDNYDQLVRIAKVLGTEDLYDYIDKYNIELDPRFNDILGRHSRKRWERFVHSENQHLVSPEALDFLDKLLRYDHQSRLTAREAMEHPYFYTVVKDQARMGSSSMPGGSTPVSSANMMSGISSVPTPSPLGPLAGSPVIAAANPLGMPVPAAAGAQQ
Sequence of human recombinant CKII (ααββ form) (P67870 whole entry partner): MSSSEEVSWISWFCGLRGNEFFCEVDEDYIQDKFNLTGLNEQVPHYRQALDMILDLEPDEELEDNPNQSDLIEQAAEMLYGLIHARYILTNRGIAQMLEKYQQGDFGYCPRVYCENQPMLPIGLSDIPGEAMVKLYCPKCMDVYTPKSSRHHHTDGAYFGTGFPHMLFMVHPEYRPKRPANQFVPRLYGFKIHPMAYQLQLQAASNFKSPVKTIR
Protocol: Reactions were carried out at 37° C. in 0.025 M HEPES (pH 7.4), 0.15 M KCl, 0.01 M MgCl2, 1.4 mM β-mercaptoethanol, 1 mM DTT, 1 mM EGTA, 10% glycerol, 0.32 mM synthetic CKII peptide, ([…]), 1 μU/μl CKII, and the indicated concentrations of ATP and test agents. Unincorporated [γ-^32 P] ATP was removed by spotting reactions onto P81 phosphocellulose paper (Whatman) and washing in 0.75 mM phosphoric acid then acetone.

HIV-1 [4] = conditions: latently and chronically infected cells; Butera et al. 1995, Critchfield et al. 1996; cited from earlier work
OM-10.1 cells = assay: OM-10.1 culture viability (flow cytometric propidium iodide exclusion); assay type: cell-based, human; conditions: OM-10.1 cultures; viability assessed at 24 hr
Protocol: as §1

casein kinase I = conditions: Shugar 1994; cited from earlier work
NF-κB = NF-κB activation and I-κB degradation upon cellular activation; assay type: cell-based
HIV-1 [5] = assay: Down modulation of cell surface CD4 in TNF-α-induced OM-10.1 cultures; assay type: cell-based, HIV-1 in OM-10.1 cells
Source text: Critical tools for studying the efferent phase of the HIV life cycle are the latently infected cell lines such as UI, ACH2, J1, and OM-10.1. […] HIV activation can also be achieved by phorbol esters such as PMA (phorbol -12-myristate-13-acetate).
The CD4 response is a direct consequence of viral activation and allows a rapid, convenient and highly reproducible assessment of treatments that modify TNF-α expression of HIV from its latent state. In addition, the down modulation of CD4 is not affected by inhibitors of virion assembly or release such as protease inhibitors. Thus, by measuring cell surface CD4 and a virion constituent such as reverse transcriptase (RT), it is possible to discriminate between inhibition of HIV assembly, release and earlier events.

O=C(O)[C@H]1O[C@@H](Oc2cc3oc(-c4ccccc4)cc(=O)c3c(O)c2O)[C@H](O)[C@@H](O)[C@@H]1O [baicalin]
inhibition of HIV replication in acutely infected cells (HIV): inhibits HIV replication

Oc1cc(O)c2c(c1)OC(c1ccc(O)c(O)c1)C(O)C2 (stereo not shown) [catechin]
HIV-1 inhibitory activity in the OM-10.1 induction system (HIV-1 [1]): lacking HIV-1 inhibitory activity | effect of competitor on binding of proteins (p44, p40, p29, p28) to the chrysin-resin [2]: no effect

O=c1cc(-c2ccc(O)cc2)oc2cc(O)cc(O)c12 [apigenin]
HIV-1 inhibitory activity in the OM-10.1 induction system (HIV-1 [1]): HIV-inhibitory | effect of competitor on binding of proteins (p44, p40, p29, p28) to the chrysin-resin [2]: specifically inhibited in their binding to the resin

O=c1cc(-c2ccccc2)oc2cc(O)cc(O)c12 [chrysin]
inhibition of HIV replication in acutely infected cells (HIV): significant inhibitory activity | kinetics of CKII inhibition with respect to ATP [3]: competitive kinetics with respect to ATP | inhibition of CKII enzymatic activity [3]: inhibit human recombinant CKII enzymatic activity | inhibition of HIV transcription (HIV-1 [4]): potent inhibitors | effect of competitor on binding of proteins (p44, p40, p29, p28) to the chrysin-resin [2]: specifically inhibited in their binding to the resin | effect of competitor on immunodetection of α, α' and β subunits of CKII bound to the chrysin resin [2]: eliminated their immunodetection

OC[C@H]1O[C@@H](n2cnc3cc(Cl)c(Cl)cc32)[C@H](O)[C@@H]1O [DRB, 5,6-dichloro-1-β-D-ribofuranosylbenzimidazole]
culture viability / toxicity over the effective dose range (OM-10.1 cells): did not decline | inhibitory activity against casein kinase I (casein kinase I): appreciable inhibitory activity | NF-κB activation and function (NF-κB; TNF-α-treated OM-10.1 cultures): appeared normal | degradation of I-κB upon cellular activation (NF-κB; in the presence of compound): Normal degradation | EC50 (HIV-1 [1]; Human immunodeficiency virus 1, TNF-α-treated OM-10.1 cultures, RT measured 48 hr after HIV activation, read-out: ED50, reduction in culture supernatant reverse transcriptase activity): ~2 µM | HIV-1 inhibitory activity in the OM-10.1 induction system (HIV-1 [1]): markedly inhibited; also recorded: potently inhibits | effective dose range for inhibition of HIV-1 expression (HIV-1 [1]; TNF-α-treated OM-10.1 cultures): 1 to 10 µM | effect of competitor on binding of proteins (p44, p40, p29, p28) to the chrysin-resin [2]: prevented the binding of the same proteins that were competed by free chrysin | effect of competitor on immunodetection of α, α' and β subunits of CKII bound to the chrysin resin [2]: eliminated their immunodetection | effect of competitor on binding of p28 to chrysin resin [2]: the only exception being p28

COc1ccc2c(c1)c(OC(C)C)c(C(N)=O)[s+]2[O-] (stereo not shown) [PD 144795]
inhibition of CKII enzymatic activity [3]: inhibition of CKII enzyme activity | HIV-1 inhibitory activity in the OM-10.1 induction system (HIV-1 [1]): HIV-inhibitory | inhibition of HIV transcription (HIV-1 [4]): inhibiting HIV transcription at micromolar concentrations | effect of competitor on binding of proteins (p44, p40, p29, p28) to the chrysin-resin [2]: pattern of binding inhibition identical to that of DRB | effect of competitor on binding of p28 to chrysin resin [2]: did not alter

O=C1CN=C(c2ccc[nH]2)c2cc(Cl)ccc2N1 [Ro 5-3335]
inhibition of RT (HIV-1 [1]; TNF-α-induced OM-10.1 cultures): inhibits both of these measures to a similar extent | inhibition of down modulation of CD4 (HIV-1 [5]): inhibits both of these measures to a similar extent

NCCNS(=O)(=O)c1ccc(Cl)c2ccncc12 [CKI-7]
HIV-1 inhibitory activity in the OM-10.1 induction system (HIV-1 [1]): without HIV-1 inhibitory activity

COc1ccc([C@@H]2CC(=O)c3c(O)cc(O[C@@H]4O[C@H](CO[C@@H]5O[C@@H](C)[C@H](O)[C@@H](O)[C@H]5O)[C@@H](O)[C@H](O)[C@H]4O)cc3O2)cc1O [hesperidin]
HIV-1 inhibitory activity in the OM-10.1 induction system (HIV-1 [1]): lacking HIV-1 inhibitory activity | effect of competitor on binding of proteins (p44, p40, p29, p28) to the chrysin-resin [2]: no effect

From patent US6274611A, “Methods and compositions for inhibition of viral replication” (The United States of America as represented by the …, priority 1999, dated 2001)
